One experiment is filed under the species Cavia porcellus. The experiment in a line: Ability to inhibit 2-chloroadenosine (15 uM)-elicited accumulations of cyclic AMP in guinea pig cerebral cortical slices.
The target in the next experiment is T1, Adenosine receptor A1 (Rattus norvegicus, UniProt P25099).
T1 sequence (P25099 whole entry): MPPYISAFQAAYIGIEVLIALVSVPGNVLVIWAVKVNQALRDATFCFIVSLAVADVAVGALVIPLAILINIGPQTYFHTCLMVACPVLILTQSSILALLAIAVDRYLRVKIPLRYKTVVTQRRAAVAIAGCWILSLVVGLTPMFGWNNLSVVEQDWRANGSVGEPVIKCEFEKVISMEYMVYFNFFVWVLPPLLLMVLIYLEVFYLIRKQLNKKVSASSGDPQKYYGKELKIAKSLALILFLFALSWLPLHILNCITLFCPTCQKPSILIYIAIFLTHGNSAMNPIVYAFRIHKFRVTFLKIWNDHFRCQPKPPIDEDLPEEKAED
The experiment in a line: Antagonism of adenosine A1 receptor assessed from the ability to inhibit binding of [3H]cyclohexyladenosine to rat cerebral cortical membranes. Type of experiment: cell membranes, Membrane.

The source of these data is ChEMBL document CHEMBL1122769, “Mesoionic xanthine analogues: antagonists of adenosine receptors” (J Med Chem, 1984).

Each structure is given as a SMILES string. A value given as a limit tells only on which side of the number the result lay.

Take `CCCn1c(=O)c2nc[nH]c2n(CCC)c1=O`: the IC50 in the experiment filed under Cavia porcellus is 8.1 µM; on Adenosine receptor A1 it was 1.5 µM.
On to `O=c1c2[nH]cnc2n(Cc2ccccc2)c(=O)n1Cc1ccccc1`, for which the IC50 amounted to 35 µM in the experiment filed under Cavia porcellus and 7 µM on Adenosine receptor A1.
For the compound `CCCCCN1C(=O)C(C)C(=O)N2N=CSC12` (configuration not stated), the concentration for half-maximal inhibition (IC50) in the experiment listed under Cavia porcellus was more than 250 µM; at Adenosine receptor A1, 120 µM.
For the compound `CCC1C(=O)N2C=CSC2N(CC)C1=O` (configuration not stated), the IC50 in the experiment filed under Cavia porcellus was found to be 150 µM; at Adenosine receptor A1, 120 µM.
As to `CCN1C(=O)C(Cc2ccccc2)C(=O)N2N=CSC12` (configuration not stated), the IC50 in the experiment listed under Cavia porcellus was more than 200 µM; on Adenosine receptor A1 it was 58 µM.
In the case of `CCC1C(=O)N(CC(C)C)C2Sc3ccccc3N2C1=O` (configuration not stated), the IC50 was found to be 15 µM in the experiment filed under Cavia porcellus and 41 µM on Adenosine receptor A1.
As for `O=C1C(Cc2ccccc2)C(=O)N(CC2CC2)C2SC=CN12` (configuration not stated), the IC50 came to 200 µM in the experiment listed under Cavia porcellus and 160 µM at Adenosine receptor A1.
As to `CCC1C(=O)N2C=Cc3ccccc3C2N(CC)C1=O` (configuration not stated), the figures for the IC50 in the experiment filed under Cavia porcellus and on Adenosine receptor A1 were 30 µM and 27 µM, respectively.
For the compound `CCC1C(=O)N2C=CSC2N(Cc2cc(OC)cc(OC)c2)C1=O` (configuration not stated), the IC50 in the experiment listed under Cavia porcellus turned out to be 250 µM; on Adenosine receptor A1 it was 95 µM.
For the compound `CCN1C(=O)CC(=O)N2N=CSC12` (configuration not stated), the IC50 in the experiment listed under Cavia porcellus is more than 250 µM; at Adenosine receptor A1 it was 110 µM.
With `CCC1C(=O)SC2N(C)C=CN2C1=O` (configuration not stated), the IC50 in the experiment filed under Cavia porcellus is more than 250 µM; at Adenosine receptor A1, 290 µM.
Consider `CCN1C(=O)C(C)C(=O)N2N=CSC12` (configuration not stated), for which the IC50 in the experiment listed under Cavia porcellus was more than 250 µM; on Adenosine receptor A1, 60 µM.
For the compound `CCC1C(=O)N2C=CSC2N(Cc2ccccc2)C1=O` (configuration not stated), the IC50 in the experiment listed under Cavia porcellus is 150 µM; at Adenosine receptor A1 it was 160 µM.
For the compound `CCC1C(=O)N(CC)C2SC(C)=NN2C1=O` (configuration not stated), the IC50 in the experiment filed under Cavia porcellus was more than 250 µM; at Adenosine receptor A1, 500 µM.
Take `CCCC1C(=O)N2C=CSC2N(CCC)C1=O` (configuration not stated): the IC50 in the experiment filed under Cavia porcellus is 250 µM; at Adenosine receptor A1 it was 54 µM.
For the compound `CCCC1C(=O)N(CC(C)C)C2Sc3ccccc3N2C1=O` (configuration not stated), the IC50 in the experiment filed under Cavia porcellus was 20 µM; on Adenosine receptor A1, 30 µM.
In the case of `CCN1C(=O)C(Cc2ccc(Cl)cc2)C(=O)N2N=CSC12` (configuration not stated), the IC50 was more than 250 µM in the experiment filed under Cavia porcellus and 45 µM at Adenosine receptor A1.
The corresponding values for `CCC1C(=O)N(CC)C2SC=NN2C1=O` (configuration not stated) are more than 250 µM and 72 µM.
For `CCC1C(=O)N(CC)C2SC(c3ccccc3)=NN2C1=O` (configuration not stated), in that order: 250 µM and 80 µM.
The corresponding values for `CCC1C(=O)N2C=CSC2N(CC2CC2)C1=O` (configuration not stated) are 120 µM and 100 µM.
As for `CCCC1C(=O)N(C)C2N(C)C=NN2C1=O` (configuration not stated), the IC50 in the experiment listed under Cavia porcellus and on Adenosine receptor A1 was more than 250 µM throughout.
Turning to `CCn1c(=O)c2nc[nH]c2n(CC)c1=O`, the IC50 in the experiment listed under Cavia porcellus is 12 µM; on Adenosine receptor A1 it was 6.4 µM.
`Cn1c(=O)c2nc(-c3ccccc3)[nH]c2n(C)c1=O` [8-PHENYL THEOPHYLLINE] gave an IC50 in the experiment filed under Cavia porcellus of 1.65 µM.
The compound `Cn1c(=O)c2c(ncn2C)n(C)c1=O` [CAFFEINE] gave an IC50 in the experiment listed under Cavia porcellus of 150 µM.
As for `Cn1c(=O)c2nc[nH]c2n(C)c1=O` [THEOPHYLLINE], in the experiment filed under Cavia porcellus, the IC50 was found to be 42 µM.
